From ChEMBL document CHEMBL4342494 (ACS Med Chem Lett, 2020)

Columns and labels:
[1] = molecular target: T1, D(2) dopamine receptor (Homo sapiens, UniProt P14416)
[2] = molecular target: T2, D(1A) dopamine receptor (Homo sapiens, UniProt P21728); test: Agonist activity at D1R (unknown origin) transfected in human HEK293T cells assessed as increase in cAMP accumulation incubated for 2 hrs by cAMP Glo-sensor assay; assay type: functional, cell-based
[3] = molecular target: T2, D(1A) dopamine receptor; test: Agonist activity at C-terminal RLuc8-fused D1R (unknown origin) transfected in human HEK293T cells co-expressing N-terminal Venus-tagged beta-arrestin2 assessed as increase in beta-arrestin2 recruitment measured after 5 mins in presence of coelenterazine H by BRET assay; assay type: cell-based
[4] = molecular target: T1, D(2) dopamine receptor; test: Agonist activity at D2 long receptor (unknown origin) transfected in human HEK293T cells assessed as increase in cAMP accumulation incubated for 2 hrs by cAMP Glo-sensor assay; assay type: functional, cell-based
[5] = molecular target: T1, D(2) dopamine receptor; remark: listed apart in the source
[6] = molecular target: T2, D(1A) dopamine receptor

T1 sequence (P14416 whole entry): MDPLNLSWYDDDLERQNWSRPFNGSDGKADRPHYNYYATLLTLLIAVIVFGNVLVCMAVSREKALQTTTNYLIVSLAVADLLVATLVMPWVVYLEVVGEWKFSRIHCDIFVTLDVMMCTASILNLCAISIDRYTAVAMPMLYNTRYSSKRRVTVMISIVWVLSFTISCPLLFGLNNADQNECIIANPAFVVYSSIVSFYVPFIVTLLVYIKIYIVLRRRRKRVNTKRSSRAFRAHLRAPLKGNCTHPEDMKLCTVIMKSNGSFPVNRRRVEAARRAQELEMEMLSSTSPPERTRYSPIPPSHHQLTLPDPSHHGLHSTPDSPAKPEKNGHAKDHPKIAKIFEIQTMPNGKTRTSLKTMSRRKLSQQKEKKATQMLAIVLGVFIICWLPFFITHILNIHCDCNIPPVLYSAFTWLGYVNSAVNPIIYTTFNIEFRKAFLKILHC
T2 sequence (P21728 whole entry, the tested form may be a part): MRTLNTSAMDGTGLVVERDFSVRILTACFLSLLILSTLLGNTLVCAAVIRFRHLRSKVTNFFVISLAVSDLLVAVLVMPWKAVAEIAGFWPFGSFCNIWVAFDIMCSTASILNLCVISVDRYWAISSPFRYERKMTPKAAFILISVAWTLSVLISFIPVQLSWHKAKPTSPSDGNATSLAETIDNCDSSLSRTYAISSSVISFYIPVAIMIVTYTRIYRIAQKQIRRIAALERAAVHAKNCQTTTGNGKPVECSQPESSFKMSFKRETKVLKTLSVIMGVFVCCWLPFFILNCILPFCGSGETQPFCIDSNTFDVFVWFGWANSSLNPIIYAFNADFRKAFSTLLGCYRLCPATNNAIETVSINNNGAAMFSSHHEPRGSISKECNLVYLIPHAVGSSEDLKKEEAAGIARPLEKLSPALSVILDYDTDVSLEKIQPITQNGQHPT

| EC50 ([2]; read-out: pEC50 (converted)) | SMILES | EC50 [1] | EC50 ([2]; read-out: EC50) | EC50 ([3]; read-out: EC50) | EC50 ([3]; read-out: pEC50 (converted)) | EC50 ([4]; read-out: EC50) | EC50 ([4]; read-out: pEC50 (converted)) | log(Tau/KA) [5] | G-protein bias factor [6] |
| --- | --- | --- | --- | --- | --- | --- | --- | --- | --- |
|  | CC(=O)Oc1c(C(C)C)cc2c(c1OC(C)=O)-c1cccc3c1[C@@H](C2)N(C)CC3 | > 10000 nM | 951 nM | > 10000 nM | > 10000 nM | > 10000 nM | > 10000 nM |  |  |
|  | CN1CCc2cccc3c2[C@H]1Cc1ccc(O)c(O)c1-3 |  |  |  |  |  |  | 2.16 | 41.5 |
|  | CC(=O)Oc1c(Cl)cc2c(c1OC(C)=O)-c1cccc3c1[C@@H](C2)N(C)CC3 | 604 nM |  |  |  | > 10000 nM | > 10000 nM |  |  |
|  | CC(=O)Oc1c(Br)cc2c(c1OC(C)=O)-c1cccc3c1[C@@H](C2)N(C)CC3 | 1410 nM |  |  |  | > 10000 nM | > 10000 nM |  |  |
|  | CCCN1CCc2cccc3c2[C@H]1Cc1ccc(O)c(O)c1-3 |  |  |  |  |  |  | 0.85 | 19.3 |
|  | CCc1cc2c(c(OC(C)=O)c1OC(C)=O)-c1cccc3c1[C@@H](C2)N(C)CC3 |  | 1550 nM | 0.38 nM |  |  |  |  |  |
|  | COCOc1ccc2c(c1OCOC)-c1cccc3c1[C@@H](C2)N(C)CC3 |  | > 10000 nM | 8.45 nM |  |  |  |  |  |
|  | CN1CCc2cccc3c2[C@H]1Cc1ccc2c(c1-3)OCO2 | 102 nM | 112 nM | > 10000 nM | > 10000 nM | > 10000 nM | > 10000 nM |  |  |
| 661 nM | COc1cccc(-c2cc3c(c(OC(C)=O)c2OC(C)=O)-c2cccc4c2[C@@H](C3)N(C)CC4)c1 |  | 669 nM | 41.4 nM |  | > 10000 nM | > 10000 nM |  |  |
